Three compounds from ChEMBL document CHEMBL3232812, “In-vitro anti-proliferative and anti-oxidant activity of galangin, fisetin and quercetin: role of localization and intermolecular interaction in model membrane” (Eur J Med Chem, 2014) can be followed below.

Series [1] in a line: Binding affinity DPPC multilamellar vesicles assessed as main transition temperature at 1:10 compound/lipid ratio after 2 hrs by differential scanning calorimetry method (reference value: 41.98 degC).
The nature of series [2]: Binding affinity to 0.5 mg/ml of DPPC multilamellar vesicles at 100 uM after 2 hrs by centrifugation method. It is filed as physicochemical.
The nature of series [3]: Binding affinity DPPC multilamellar vesicles after 2 hrs by centrifugation method. The class given is physicochemical.
The nature of series [4]: Binding affinity DPPC multilamellar vesicles assessed as pre-transition temperature at 1:20 compound/lipid ratio after 2 hrs by differential scanning calorimetry method (reference value: 34.10 degC). For orientation: DSC measures the heat that a sample takes up or gives off during a temperature scan.
Series [5] can be described thus: Binding affinity DPPC multilamellar vesicles assessed as pre-transition temperature at 1:10 compound/lipid ratio after 2 hrs by differential scanning calorimetry method (reference value: 34.10 degC).
A short description of series [6]: Binding affinity DPPC multilamellar vesicles assessed as main transition temperature at 1:20 compound/lipid ratio after 2 hrs by differential scanning calorimetry method (reference value: 41.98 degC).
Series [7] in a line: Binding affinity DPPC multilamellar vesicles assessed as main transition temperature at 1:5 compound/lipid ratio after 2 hrs by differential scanning calorimetry method (reference value: 41.98 degC).
Series [8] is described as follows: Binding affinity DPPC multilamellar vesicles assessed as main transition temperature at 1:2 compound/lipid ratio after 2 hrs by differential scanning calorimetry method (reference value: 41.98 degC).
Series [9] can be described thus: Binding affinity DPPC multilamellar vesicles assessed as chemical shift at 1:5 compound/lipid ratio at 323 K by nuclear magnetic resonance analysis.
The nature of series [10]: Binding affinity DPPC multilamellar vesicles assessed as chemical shift at 1:5 compound/lipid ratio at 303 K by nuclear magnetic resonance analysis.
Series [11] can be described thus: Binding affinity DPPC multilamellar vesicles assessed as chemical shift at 1:5 compound/lipid ratio at 333 K by nuclear magnetic resonance analysis.
Series [12] concerns Radical scavenging activity. As to the kind of experiment: Antioxidant activity assessed as DPPH radical scavenging activity after 30 mins. The class given is functional.
Series [13] relates to K562. As to the kind of experiment: Antiproliferative activity against human K562 cells assessed as cell growth at 10^-4 ug/ml after 48 hrs by SRB assay relative to control. The class given is functional. The following applies: K562, 48 h, read-out: Activity. In general terms: The SRB assay estimates cell density from bound dye.
For series [14], the system named is HepG2. Description: Antiproliferative activity against human HepG2 cells assessed as cell growth at 10^-4 ug/ml after 48 hrs by SRB assay relative to control. It is filed as functional. Particulars: HepG2, 48 h, read-out: Activity.
In series [15] the test system is MCF7. As to the kind of experiment: Antiproliferative activity against human MCF7 cells assessed as cell growth at 10^-4 ug/ml after 48 hrs by SRB assay relative to control. It is filed as functional. Particulars: MCF7, 48 h, read-out: Activity.

In brackets after ≈: the same amount, converted by molar mass. Activity calls are given as the source filed them. No cut-off for these calls is given here.

In general, IC50 refers to the concentration needed to halve the response being measured. As for `O=c1c(O)c(-c2ccc(O)c(O)c2)oc2cc(O)ccc12` [FISETIN], the T worked out at 39.3 °C in series [1]; 30.1 °C in [4]; 26.2 °C in series [5]; 40.8 °C in [6]; 38.3 °C in series [7]; 39.2 °C in series [8]. The same compound gave an Activity in series [2] of 60%. In series [3], the Kapp was 10438 M⁻¹. Further, the result in series [9], in [10] and in series [11] was Active. Moreover, the IC50 in series [12] came out at 9.26 µg/mL (≈ 32.4 µM). Besides, the growth at 0.0001 µg/mL came out at 33.7% in series [13], 62.8% in series [14] and 47.1% in [15].

On to `O=c1c(O)c(-c2ccccc2)oc2cc(O)cc(O)c12` [GALANGIN], for which the T in [1] stood at 37.9 °C; in series [6], 38.7 °C; in [7] it was 37.6 °C; in series [8], 36.5 °C. The compound further came in with an Activity in series [2] of 60%. Besides, the Kapp in series [3] is 16701 M⁻¹. The result in series [9], in series [10] and in series [11] was Active. For the same compound, the IC50 in series [12] came out at 11.4 µg/mL (≈ 42.2 µM). In addition, the figures for the growth at 0.0001 µg/mL in [13], in [14] and in series [15] were 74.8%, 23.7% and 68.2%, respectively.

With `O=c1c(O)c(-c2ccc(O)c(O)c2)oc2cc(O)cc(O)c12` [QUERCETIN], the T in series [1] worked out at 39.7 °C; in [6] it was 40.2 °C; in series [7], 39.6 °C; in series [8], 41 °C. Further, the Activity in series [2] is listed as 60%. The Kapp in series [3] was 10710 M⁻¹. The outcome in [9], in series [10] and in series [11] was Active. Moreover, the IC50 in series [12] is 9.14 µg/mL (≈ 30.2 µM). For the same compound, the values for the growth at 0.0001 µg/mL in series [13], in [14] and in series [15] were 12.4%, -5.4% and 8.3%, respectively.
